According to patent US9670261B2 (Sanofi, priority 2012, dated 2017):
≈ marks a conversion by molar mass, not a printed value. Where a SMILES comes first, the peptide text is derived from it. Side-chain parts run from the residue outwards. [ ]: non-standard residue; d: D form. The star is where a group is joined. Stearoyl = CCCCCCCCCCCCCCCCCC(=O)*; Aib = CC(C)(N)C(=O)O; GABA = NCCCC(=O)O

Experiments:
[1] = molecular target: T1, human GLP-1 receptor (Homo sapiens, UniProt P43220); test: cAMP response (HTRF) of HEK-293 cells stably expressing human GLP-1 receptor; assay type: cell-based; settings: Table 7; cAMP formation; read-out: EC50 hGLP-1 R
T1 construct: expressed in transfected cells
Summary of the method: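 HTRF read-out of cellular cAMP after 30 min compound exposure at room temperature. Accutase-detached cells were suspended at 400000 cells/ml in HBSS buffer containing 20 mM HEPES, 0.1% BSA and 2 mM IBMX phosphodiesterase inhibitor.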

[2] = molecular target: T2, human GIP receptor (Homo sapiens, UniProt P48546); test: cAMP response (HTRF) of HEK-293 cells stably expressing human GIP receptor; assay type: cell-based; settings: Table 7; cAMP formation; read-out: EC50 hGIP R
T2 construct: expressed in transfected cells
T2 sequence (P48546 22-466): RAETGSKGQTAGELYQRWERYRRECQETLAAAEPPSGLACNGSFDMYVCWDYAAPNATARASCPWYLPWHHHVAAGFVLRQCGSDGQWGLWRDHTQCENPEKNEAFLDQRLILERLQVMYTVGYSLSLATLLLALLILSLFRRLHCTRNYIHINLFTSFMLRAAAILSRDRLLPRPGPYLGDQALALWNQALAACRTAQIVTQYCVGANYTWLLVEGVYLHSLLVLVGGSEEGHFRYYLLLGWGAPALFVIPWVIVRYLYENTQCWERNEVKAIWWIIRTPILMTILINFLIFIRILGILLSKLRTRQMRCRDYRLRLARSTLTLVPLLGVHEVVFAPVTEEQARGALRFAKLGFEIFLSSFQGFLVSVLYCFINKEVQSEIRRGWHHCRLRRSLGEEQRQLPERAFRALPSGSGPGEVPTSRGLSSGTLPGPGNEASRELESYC
Procedure: cAMP content of cells was determined using a kit from Cisbio Corp. (cat. no. 62AM4PEC) based on HTRF (Homogenous Time Resolved Fluorescence). For preparation, cells were split into T175 culture flasks and grown overnight to near confluency in medium (DMEM/10% FBS). Medium was then removed and cells washed with PBS lacking calcium and magnesium, followed by proteinase treatment with accutase (Sigma-Aldrich cat. no. A6964). Detached cells were washed and resuspended in assay buffer (1×HBSS; 20 mM HEPES, 0.1% BSA, 2 mM IBMX) and cellular density determined. They were then diluted to 400000 cells/ml and 25 μl-aliquots dispensed into the wells of 96-well plates. For measurement, 25 μl of test compound in assay buffer was added to the wells, followed by incubation for 30 minutes at room temperature.

[3] = Solubility testing in buffer (HPLC-UV); settings: buffer
[4] = Chemical stability in solution, 7 days at 25° C. (% remaining peptide); settings: % remaining peptide after 7 days at 25° C.
Procedure: After that time course, the sample was centrifuged for 20 min at 4000 rpm and the supernatant was analysed with HPLC-UV. For determination of the amount of the remaining peptide, the peak areas of the target compound at t0 and t7 were compared, resulting in “% remaining peptide”, following the equation % remaining peptide=[(peak area peptide t7)×100]/peak area peptide t0.
The chemical stability is expressed as “% remaining peptide”.

T1 sequence (P43220 24-463): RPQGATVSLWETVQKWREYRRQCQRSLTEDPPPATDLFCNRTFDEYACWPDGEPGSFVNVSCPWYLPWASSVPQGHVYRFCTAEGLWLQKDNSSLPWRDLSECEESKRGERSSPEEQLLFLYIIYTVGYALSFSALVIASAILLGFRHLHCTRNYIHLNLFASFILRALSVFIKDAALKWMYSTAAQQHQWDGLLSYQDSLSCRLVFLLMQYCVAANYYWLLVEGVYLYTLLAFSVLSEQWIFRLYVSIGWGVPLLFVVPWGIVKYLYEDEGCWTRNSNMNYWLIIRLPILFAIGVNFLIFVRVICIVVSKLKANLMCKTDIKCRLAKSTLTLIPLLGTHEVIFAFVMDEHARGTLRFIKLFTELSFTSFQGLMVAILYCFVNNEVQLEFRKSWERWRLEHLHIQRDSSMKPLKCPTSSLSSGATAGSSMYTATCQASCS

Question: With `CCCCCCCCCCCCCCCCCC(=O)NCCCC(=O)NCCCC[C@H](NC(=O)[C@H](CCC(N)=O)NC(=O)[C@@H](NC(=O)[C@H](CO)NC(=O)[C@H](CC(C)C)NC(=O)[C@H](CC(=O)O)NC(=O)[C@H](CO)NC(=O)[C@@H](NC(=O)[C@H](Cc1ccccc1)NC(=O)[C@@H](NC(=O)CNC(=O)[C@H](CCC(=O)O)NC(=O)C(C)(C)NC(=O)[C@@H](N)Cc1ccc(O)cc1)[C@@H](C)O)[C@@H](C)O)[C@@H](C)CC)C(=O)N[C@@H](CCC(=O)O)C(=O)N[C@@H](CCCCN)C(=O)N[C@@H](CCCNC(=N)N)C(=O)N[C@@H](C)C(=O)N[C@@H](C)C(=O)NC(C)(C)C(=O)N[C@@H](CCC(=O)O)C(=O)N[C@@H](Cc1ccccc1)C(=O)N[C@H](C(=O)N[C@@H](CCC(=O)O)C(=O)N[C@@H](Cc1c[nH]c2ccccc12)C(=O)N[C@@H](CC(C)C)C(=O)N[C@@H](CCCCN)C(=O)N[C@@H](CC(N)=O)C(=O)N[C@H](C(=O)NCC(=O)N1CCC[C@H]1C(=O)N[C@@H](CO)C(=O)N[C@@H](CO)C(=O)NCC(=O)N[C@@H](C)C(=O)N1CCC[C@H]1C(=O)N1CCC[C@H]1C(=O)N1CCC[C@H]1C(=O)N[C@@H](CO)C(N)=O)[C@@H](C)O)[C@@H](C)CC` [SEQ ID NO: 17, Y-Aib-E-G-T-F-T-S-D-L-S-I-Q-K(GABA-x70)-E-K-R-A-A-Aib-E-F-I-E-W-L-K-N-T-G-P-S-S-G-A-P-P-P-S-NH2] (H-Y[Aib]EGTFTSDLSIQK([GABA-Stearoyl])EKRAA[Aib]EFIEWLKNTGPSSGAPPPS-NH2) as the compound, how does the EC50 [1] read?
Answer: 8.7 pM

Question: What about the EC50 [2] of the same compound?
Answer: 9.6 pM

Question: What about the solubility at 2 h ([3]; pH 4.5) of the same compound?
Answer: 970 µg/mL (≈ 213 µM)

Question: And the solubility at 2 h ([3]; pH 7.4)?
Answer: > 1000 µg/mL

Question: And the “Stability (pH 4.5)” value ([4]; pH 4.5)?
Answer: 100.0%

Question: What about the “Stability (pH 7.4)” value ([4]; pH 7.4) of the same compound?
Answer: 100.0%
